One data set has as its target T1, CH24H (Homo sapiens, UniProt Q9Y6A2).
T1 construct: from tissue; host or cells: brain of living human trial subjects (in vivo)
Put plainly: PK/PD (PK/OE/24HC) turnover modeling. The note with it: turnover model estimate. An excerpt: Similar to the PK model, the PK/PD model was developed as a population mixed-effects model and incorporated the individual PK parameters from the final PK population model. A turnover model was used to characterize changes in plasma 24HC overtime. Plasma 24HC was considered to be at steady-state baseline (BL) before the start of treatment. […] PK/PD covariates were screened in a procedure similar to the PK covariates. In the final PK/PD model, two covariates, A1-AGLP and body weight affected baseline 24HC.
The PK/PD analysis dataset consisted of 2165 24HC observations from 3 phase I trials. Four subjects from the ELEKTRA study with large IC50 estimates were excluded from the dataset. Additionally, 42 individuals with large conditional weighted residuals were excluded from the dataset. The final dataset contained 2107 24HC observations from 248 subjects. Table 26 summarizes the modeling dataset with reference to example numbers, respective clinical trial ID, subject numbers, regimen, and number of observations and doses. Tables 27 and 28 summarize the categorical covariates used in PK/OE/24HC analysis from the entire dataset and the ELEKTRA study subset, respectively.
Tables 29 and 30 summarize the mean continuous variables used in the PK/OE/24HC covariate analysis from the entire PK/OE/24HC population studied and the ELEKTRA subset, respectively. In addition to the shared variables, the PK/PD dataset contained the individual final estimates of the population PK model parameters (IND_ALAG1, IND_KA, IND_CL, IND_V2, IND_Q, IND_V3, and IND_F1). Subjects without individual PK parameter estimates (e.g. subjects from the placebo arms) were assigned to the respective geometric mean of the estimated individual parameter values.
A turnover model was used to describe changes in 24HC concentration over time. […] The following formula estimates change in 24HC: […]
The indirect exposure effect (EFF) was estimated by an Imax model:
The effect-site concentration was implemented as a delayed equilibrium with the plasma/brain transit rate parameter (KPLBR):
The scaling parameter KPLBR was previously estimated in a competitive enzyme occupancy model derived from PET brain imaging data (NCT02497235, Table 19). Parameters derived from this base model were fixed at their previous final PK population estimates derived from example 12. However, no random effects could be estimated without enzyme occupancy data. FIG. 26 depicts the basic model structure in relation to observed and unobserved data. There was a strong growth-related increase in baseline 24HC levels, which was only observed in young subjects.
The following variables were screened by forward inclusion, backward exclusion F-tests: • Growth/maturity: Weight, BMI, and age • Protein binding: Albumin (ALB), A1-AGLP • Liver function: AST, ALT, GGT, and ALP • Kidney function: Creatinine clearance (CRCL), eGFR • Categorical variables: Asian, sex. Ethnicity, and disease type

Data set [1] is described as follows: Relative stability of crystalline polymorphs. The note with it: Form II compared with Form I. Format: physicochemical.

T1 sequence (Q9Y6A2 whole entry): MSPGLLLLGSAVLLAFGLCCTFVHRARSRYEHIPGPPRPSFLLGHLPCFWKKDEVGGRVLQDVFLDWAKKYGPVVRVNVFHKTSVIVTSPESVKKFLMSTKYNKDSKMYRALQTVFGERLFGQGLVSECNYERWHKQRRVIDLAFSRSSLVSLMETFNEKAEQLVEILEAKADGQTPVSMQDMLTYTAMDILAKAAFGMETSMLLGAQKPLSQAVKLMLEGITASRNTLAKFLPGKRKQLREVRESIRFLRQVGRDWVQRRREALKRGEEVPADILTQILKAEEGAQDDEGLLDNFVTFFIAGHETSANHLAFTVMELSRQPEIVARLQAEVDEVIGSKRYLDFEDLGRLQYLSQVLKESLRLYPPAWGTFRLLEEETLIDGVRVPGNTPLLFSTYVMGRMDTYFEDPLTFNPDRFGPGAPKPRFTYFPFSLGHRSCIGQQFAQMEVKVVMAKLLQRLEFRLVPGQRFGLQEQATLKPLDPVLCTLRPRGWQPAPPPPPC

On to `CC(C)C(O)CC[C@@H](C)[C@H]1CC[C@H]2[C@@H]3CC=C4C[C@@H](O)CC[C@]4(C)[C@H]3CC[C@]12C` (stereo partly drawn) [24HC, 24-hydroxycholesterol], for which, at CH24H, the “24HC elimination rate (KOUT)” value is 0.02 ng/mL/h and the “24HC synthesis rate (KIN)” value was 1.09 h⁻¹.

`O=C(c1cccnc1-c1ccncc1)N1CCC(O)(Cc2ccccc2)CC1` [Form II, (4-benzyl-4-hydroxypiperidin-1-yl) (2,4′-bipyridin-3-yl) methanone]: in data set [1], the polymorph stability result is recorded as “more stable than Form I”.

The values are drawn from patent US20250213547A1, “METHODS OF TREATING NEUROLOGICAL DISEASES” (priority 2022, published 2025).
